From patent US11802120B2, “Fused cyclic urea derivatives as CRHR2 antagonist” (RaQualia Pharma Inc., priority 2018, dated 2023)

Molecular target: T1, human CRHR2-alpha (Homo sapiens, UniProt Q13324)
T1 sequence (Q13324 1-411): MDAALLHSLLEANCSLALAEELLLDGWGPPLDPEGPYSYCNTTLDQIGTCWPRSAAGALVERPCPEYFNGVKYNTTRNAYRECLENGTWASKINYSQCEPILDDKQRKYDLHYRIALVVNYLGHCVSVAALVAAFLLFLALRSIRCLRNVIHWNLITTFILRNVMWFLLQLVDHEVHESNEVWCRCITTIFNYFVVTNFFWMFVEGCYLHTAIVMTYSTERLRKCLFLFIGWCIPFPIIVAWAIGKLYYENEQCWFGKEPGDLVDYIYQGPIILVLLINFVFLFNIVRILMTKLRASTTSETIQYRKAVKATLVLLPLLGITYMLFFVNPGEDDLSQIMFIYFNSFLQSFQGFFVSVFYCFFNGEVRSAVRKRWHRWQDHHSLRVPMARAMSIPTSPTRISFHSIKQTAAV
Assay: cAMP functional assay for human CRHR2 (LANCE Ultra cAMP, TR-FRET)
Type: cell-based
Details: CHO-K1 cells expressing human CRHR2-alpha, agonist human urocortin2 at EC80, cAMP; read-out: IC50 against CRHR2
How it was run: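 Antagonism measured in CHO-K1 cells stably expressing the receptor, serum-starved 7 h then cryopreserved. Thawed cells in HBSS buffer with 0.1% BSA, 0.5 mM IBMX, 5 mM Hepes pH 7.4 were preincubated with compound 30 min at 25° C, then stimulated 30 min with EC80 agonist: urocortin2 for CRHR2, CRF for CRHR1.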

IC50, < 300 nM:
Cc1ncc(Cl)cc1C(=O)N[C@H]1CC[C@H](Cn2c(=O)n(-c3ccccc3C(F)(F)F)c3cccnc32)CC1 [Example 257, 5-chloro-2-methyl-N-((1r,4r)-4-((2-oxo-1-(2-(trifluoro-methyl)phenyl)-1H-imidazo [4,5-b]pyridin-3(2H)-yl)methyl)cyclohexyl)nicotinamide]
Cc1ncc(Cl)cc1C(=O)N[C@H]1CC[C@H](Cn2c(=O)n(-c3cccnc3C#N)c3ccccc32)CC1 [Example 239, 5-chloro-N-((1r,4r)-4-((3-(2-cyanopyridin-3-yl)-2-oxo-2,3-dihydro-1H-benzo[d]imidazol-1-yl)methyl)cyclohexyl)-2-methylnicotinamide]
CCn1nc2ccccc2c1C(=O)N[C@H]1CC[C@H](Cn2c(=O)n(-c3ccc(C(=O)NC)nc3)c3ccccc32)CC1 [Example 166, 2-ethyl-N-((1r,4r)-4-((3-(6-(methylcarbamoyl)pyridin-3-yl)-2-oxo-2,3-dihydro-1H-benzo [d]imidazol-1-yl)methyl)cyclo-hexyl)-2H-indazole-3-carboxamide]
Cc1ncc(Cl)cc1C(=O)N[C@H]1CC[C@H](Cn2c(=O)n(-c3ccc(-c4c[nH]nn4)cc3)c3ccccc32)CC1 [Example 633, N-((1r,4r)-4-((3-(4-(1H-1,2,3-triazol-4-yl)phenyl)-2-oxo-2,3-dihydro-1H-benzo[d]imidazol-1-yl)methyl)cyclohexyl)-5-chloro-2-methylnicotinamide]
CNC(=O)c1ccc(-n2c(=O)n(C[C@H]3CC[C@H](NC(=O)c4cc(Cl)cnc4Cl)CC3)c3ccccc32)cn1 [Example 542, 5-(3-(((1r,4r)-4-(2,5-dichloronicotinamido)cyclohexyl)methyl)-2-oxo-2,3-dihydro-1H-benzo[d]imidazol-1-yl)-N-methylpicolinamide]
Cc1ncc(Cl)cc1C(=O)N[C@H]1CC[C@H](Cn2c(=O)n(C3CCN(c4cccnc4)CC3)c3ccccc32)CC1 [Example 513, 5-chloro-2-methyl-N-((1r,4r)-4-((2-oxo-3-(1-(pyridin-3-yl)piperidin-4-yl)-2,3-dihydro-1H-benzo [d]imidazol-1-yl)methyl)cyclohexyl)nicotinamide]
Cc1ncc(Cl)cc1C(=O)N[C@H]1CC[C@H](Cn2c(=O)n(-c3cccc(-c4cncn4C)c3)c3ccccc32)CC1 [Example 517, 5-chloro-2-methyl-N-((1r,4r)-4-((3-(3-(1-methyl-1H-imidazol-5-yl)phenyl)-2-oxo-2,3-dihydro-1H-benzo[d]imidazol-1-yl)methyl)cyclohexyl)nicotinamide]
CNc1cnc(-n2c(=O)n(C[C@H]3CC[C@H](NC(=O)c4cc(Cl)cnc4C(F)F)CC3)c3ccccc32)cn1 [Example 391, 5-chloro-2-(difluoromethyl)-N-((1r,4r)-4-((3-(5-(methyl-amino)pyrazin-2-yl)-2-oxo-2,3-dihydro-1H-benzo[d]imidazol-1-yl)methyl)cyclohexyl) nicotinamide]
Cc1ncc(Cl)cc1C(=O)N[C@H]1CC[C@H](Cn2c(=O)n(-c3ccc(N4CCOCC4)nc3)c3ccccc32)CC1 [Example 54, 5-chloro-2-methyl-N-((1r,4r)-4-((3-(6-morpholinopyridin-3-yl)-2-oxo-2,3-dihydro-1H-benzo[d]imidazol-1-yl)methyl)cyclohexyl) nicotinamide]
O=C(N[C@H]1CC[C@H](Cn2c(=O)n(-c3ccc4ccncc4c3)c3ccccc32)CC1)c1cc(Cl)cnc1C(F)F [Example 423, 5-chloro-2-(difluoromethyl)-N-((1r,4r)-4-((3-(isoquinolin-7-yl)-2-oxo-2,3-dihydro-1H-benzo[d]imidazol-1-yl)methyl)cyclohexyl)nicotinamide]
CCn1nc2ccccc2c1C(=O)N[C@H]1CC[C@H](Cn2c(=O)n(-c3ccc(C(C)=O)cc3)c3ccccc32)CC1 [Example 41, N-((1r,4r)-4-((3-(4-acetylphenyl)-2-oxo-2,3-dihydro-1H-benzo[d]imidazol-1-yl)methyl)cyclohexyl)-2-ethyl-2H-indazole-3-carboxamide]
COc1cncc(-n2c(=O)n(C[C@H]3CC[C@H](NC(=O)c4cc(Cl)cnc4C(F)F)CC3)c3ccccc32)c1 [Example 683, 5-chloro-2-(difluoromethyl)-N-((1r,4r)-4-((3-(5-methoxy-pyridin-3-yl)-2-oxo-2,3-dihydro-1H-benzo[d]imidazol-1-yl)methyl)cyclohexyl) nicotinamide]
CNC(=O)c1ccc(-n2c(=O)n(C[C@H]3CC[C@H](NC(=O)c4cc(Cl)cnc4COC)CC3)c3ccccc32)cn1 [Example 335, 5-(3-(((1r,4r)-4-(5-chloro-2-(methoxymethyl)nico-tinamido)cyclohexyl)methyl)-2-oxo-2,3-dihydro-1H-benzo[d]imidazol-1-yl)-N-methylpicolinamide]
Cc1ncc(Cl)cc1C(=O)N[C@H]1CC[C@H](Cn2c(=O)n(-c3ccc4c(c3)nc(C)n4C)c3ccccc32)CC1 [Example 168, 5-chloro-N-((1r,4r)-4-((1′,2′-dimethyl-2-oxo-1′H-[1,5′-bibenzo[d]imidazol]-3(2H)-yl)methyl)cyclohexyl)-2-methylnicotinamide]
CNC(=O)c1ccc(-n2c(=O)n(C[C@H]3CC[C@H](NC(=O)c4cc(C(F)(F)F)cnc4C)CC3)c3ccccc32)cn1 [Example 491, N-methyl-5-(3-(((1r,4r)-4-(2-methyl-5-(trifluoromethyl)nicotinamido)cyclohexyl)methyl)-2-oxo-2,3-dihydro-1H-benzo[d]imidazol-1-yl) picolinamide]
Cc1ncc(Cl)cc1C(=O)N[C@H]1CC[C@H](Cn2c(=O)n(-c3cccc(-n4ccnn4)c3)c3ccccc32)CC1 [Example 537, N-((1r,4r)-4-((3-(3-(1H-1,2,3-triazol-1-yl)phenyl)-2-oxo-2,3-dihydro-1H-benzo[d]imidazol-1-yl)methyl)cyclohexyl)-5-chloro-2-methylnicotinamide]
O=C(N[C@H]1CC[C@H](Cn2c(=O)n(-c3ccc(CO)cc3)c3ccccc32)CC1)c1cc(Cl)cnc1C(F)F [Example 384, 5-chloro-2-(difluoromethyl)-N-((1r,4r)-4-((3-(4-(hydroxy-methyl)phenyl)-2-oxo-2,3-dihydro-1H-benzo[d]imidazol-1-yl)methyl)cyclohexyl) nicotinamide]
COc1ccc(F)c(-n2c(=O)n(C[C@H]3CC[C@H](NC(=O)c4cc(Cl)cnc4C(F)F)CC3)c3cccnc32)c1 [Example 725, 5-chloro-2-(difluoromethyl)-N-((1r,4r)-4-((3-(2-fluoro-5-methoxyphenyl)-2-oxo-2,3-dihydro-1H-imidazo[4,5-b]pyridin-1-yl)methyl)cyclo-hexyl)nicotinamide]
O=C(N[C@H]1CC[C@H](Cn2c(=O)n(-c3cccc(N4CCOCC4)c3)c3ccccc32)CC1)c1cc(Cl)cnc1C(F)F [Example 566, 5-chloro-2-(difluoromethyl)-N-((1r,4r)-4-((3-(3-morpholinophenyl)-2-oxo-2,3-dihydro-1H-benzo[d]imidazol-1-yl)methyl)cyclo-hexyl)nicotinamide]
CC(C)(O)COc1ccc(-n2c(=O)n(C[C@H]3CC[C@H](NC(=O)c4cc(Cl)cnc4C(F)F)CC3)c3ccccc32)cn1 [Example 429, 5-chloro-2-(difluoromethyl)-N-((1r,4r)-4-((3-(6-(2-hydroxy-2-methylpropoxy)pyridin-3-yl)-2-oxo-2,3-dihydro-1H-benzo[d]imidazol-1-yl)methyl)cyclohexyl) nicotinamide]
Cc1ncc(Cl)cc1C(=O)N[C@H]1CC[C@H](Cn2c(=O)n(C3Cc4ccc(Br)cc4C3)c3ccncc32)CC1 (some centres unmarked) [Example 211, N-((1r,4r)-4-((1-(5-bromo-2,3-dihydro-1H-inden-2-yl)-2-oxo-1H-imidazo[4,5-c]pyridin-3(2H)-yl)methyl)cyclohexyl)-5-chloro-2-methylnicotinamide]
O=C(N[C@H]1CC[C@H](Cn2c(=O)n(-c3ccc4ncccc4c3)c3cccnc32)CC1)c1cc(Cl)cnc1C(F)F [Example 361, 5-chloro-2-(difluoromethyl)-N-((1r,4r)-4-((2-oxo-1-(quinolin-6-yl)-1H-imidazo[4,5-b]pyridin-3(2H)-yl)methyl)cyclohexyl) nicotinamide]
C[C@H](O)COc1ccc(-n2c(=O)n(C[C@H]3CC[C@H](NC(=O)c4cc(Cl)cnc4C(F)F)CC3)c3ccccc32)cn1 [Example 440, 5-chloro-2-(difluoromethyl)-N-((1S,4r)-4-((3-(6-((S)-2-hydroxypropoxy)pyridin-3-yl)-2-oxo-2,3-dihydro-1H-benzo[d]imidazol-1-yl)methyl)cyclohexyl)nicotinamide]
